# Measured values: patent publication US20240116985A1, “STAPLED PEPTIDES AND METHODS THEREOF” (priority 2020, published 2024)
# Target: T1, full-length beta-Catenin (Uniprot ID P35222) (Homo sapiens, UniProt P35222)
# T1 construct: 10 nM full-length beta-Catenin (Uniprot ID P35222)
# T1 sequence (P35222 1-781): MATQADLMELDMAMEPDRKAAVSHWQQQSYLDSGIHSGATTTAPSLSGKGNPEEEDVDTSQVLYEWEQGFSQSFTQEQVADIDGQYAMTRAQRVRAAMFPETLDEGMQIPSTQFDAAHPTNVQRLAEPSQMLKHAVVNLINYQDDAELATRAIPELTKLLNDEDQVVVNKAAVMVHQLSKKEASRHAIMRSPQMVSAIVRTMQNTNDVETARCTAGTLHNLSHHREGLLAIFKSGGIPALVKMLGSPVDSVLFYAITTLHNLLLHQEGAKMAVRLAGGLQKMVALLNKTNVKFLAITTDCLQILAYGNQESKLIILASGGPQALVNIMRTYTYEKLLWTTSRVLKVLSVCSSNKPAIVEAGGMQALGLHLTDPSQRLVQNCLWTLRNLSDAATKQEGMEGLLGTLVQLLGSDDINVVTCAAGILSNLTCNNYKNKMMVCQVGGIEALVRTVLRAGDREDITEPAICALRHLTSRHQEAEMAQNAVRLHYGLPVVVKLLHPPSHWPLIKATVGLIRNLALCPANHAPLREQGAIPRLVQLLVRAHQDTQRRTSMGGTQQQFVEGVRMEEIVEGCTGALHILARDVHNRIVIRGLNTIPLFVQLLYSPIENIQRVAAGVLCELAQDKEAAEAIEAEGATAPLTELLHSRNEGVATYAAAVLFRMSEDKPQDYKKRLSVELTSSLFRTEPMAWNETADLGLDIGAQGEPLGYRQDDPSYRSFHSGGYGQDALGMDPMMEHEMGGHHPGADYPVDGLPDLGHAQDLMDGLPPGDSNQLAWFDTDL
# Assay: Fluorescence polarization IC50 (beta-catenin / 5FAM-TCF4 10-53 competition)
# Assay type: binding
# Details: fluorescence polarization; read-out: beta-Catenin FP IC50
row,IC50 [nM],SMILES
1,16,"CC(=O)N1CCC[C@]12CC=CCCCC1(CCCC=CCCCOC(=O)N3CC[C@@](C(=O)N[C@@H](Cc4ccsc4)C(=O)N[C@@H](Cc4csc5ccccc45)C(=O)N[C@@H](CCC(N)=O)C(N)=O)(C3)NC(=O)[C@H](CC(C)C)NC(=O)[C@H](Cc3ccccc3)NC(=O)[C@H](C)NC(=O)[C@H](C)NC(=O)[C@H](CCN(CC(=O)O)C(=O)CCN(C)C)NC(=O)[C@H](CC(=O)O)NC1=O)NC(=O)[C@H](CC(C)(C)C)NC(=O)[C@H](CC(=O)O)NC2=O (stereo partly drawn) [I-2244, Ac-PL3-Asp-Npg-B5-Asp-[Me2NPr]GAbu-Ala-Ala-Phe-Leu-PyrS2-3Thi-BztA-Gln-NH2]"
2,585,"CC(=O)N1CCC[C@H]1C(=O)N[C@@H](CC(=O)O)C(=O)N[C@@H](CC(C)(C)C)C(=O)N[C@]1(C)CC=CCCCOC(=O)N2CC[C@@](C(=O)N[C@@H](Cc3ccsc3)C(=O)N[C@@H](Cc3csc4ccccc34)C(=O)N[C@@H](CCC(N)=O)C(N)=O)(C2)NC(=O)[C@H](CC(C)C)NC(=O)[C@H](Cc2ccccc2)NC(=O)[C@H](C)NC(=O)[C@H](C)NC(=O)[C@H](CC(=O)O)NC(=O)[C@H](CC(=O)O)NC1=O [I-1990, Ac-Pro-Asp-Npg-R3-Asp-Asp-Ala-Ala-Phe-Leu-PyrS2-3Thi-BztA-Gln-NH2]"
3,81,"CC(=O)N1CCC[C@]12CC=CCCCC1(CCCC=CCCCOC(=O)N3CC[C@@](C(=O)N[C@@H](Cc4ccsc4)C(=O)N[C@@H](Cc4csc5ccccc45)C(=O)N[C@@H](CCC(N)=O)C(N)=O)(C3)NC(=O)[C@H](CC(C)C)NC(=O)[C@H](Cc3ccccc3)NC(=O)[C@H](C)NC(=O)[C@H](C)NC(=O)[C@H](CCN(CCN3CCOCC3)CC(=O)O)NC(=O)[C@H](CC(=O)O)NC1=O)NC(=O)[C@H](CC(C)(C)C)NC(=O)[C@H](CC(=O)O)NC2=O (stereo partly drawn) [I-1842, Ac-PL3-Asp-Npg-B5-Asp-[MorphEt]GAbu-Ala-Ala-Phe-Leu-PyrS2-3Thi-BztA-Gln-NH2]"
4,1020,"CC(=O)N1CCC[C@]12CC=CCCCC1(CCCC=CCCCOC(=O)N3CC[C@@](C(=O)N[C@@H](Cc4ccsc4)C(=O)N[C@@H](Cc4csc5ccccc45)C(=O)N[C@@H](CCC(N)=O)C(N)=O)(C3)NC(=O)[C@H](CC(N)=O)NC(=O)[C@H](Cc3ccccc3)NC(=O)[C@H](C)NC(=O)[C@H](C)NC(=O)[C@H]([C@@H](C)O)NC(=O)[C@H](CC(N)=O)NC1=O)NC(=O)[C@H](C)NC(=O)[C@H](CC(=O)O)NC2=O (stereo partly drawn) [I-2003, Ac-PL3-Asp-Ala-B5-Asn-Thr-Ala-Ala-Phe-Asn-PyrS2-3Thi-BztA-Gln-NH2]"
5,11,"CC(=O)N1CCC[C@]12CC=CCCCC1(CCCC=CCCCOC(=O)N3CC[C@@](C(=O)N[C@@H](Cc4ccsc4)C(=O)N[C@@H](Cc4csc5ccccc45)C(=O)N[C@@H](CCC(N)=O)C(N)=O)(C3)NC(=O)[C@H](CC(C)C)NC(=O)[C@H](Cc3ccccc3)NC(=O)[C@H](C)NC(=O)[C@H](C)NC(=O)[C@H](CN(CC(=O)O)C(=O)c3ccc(CN4CCOCC4)cc3)NC(=O)[C@H](CC(=O)O)NC1=O)NC(=O)[C@H](CC(C)(C)C)NC(=O)[C@H](CC(=O)O)NC2=O (stereo partly drawn) [I-2238, Ac-PL3-Asp-Npg-B5-Asp-[MeMorphBz]GA-Ala-Ala-Phe-Leu-PyrS2-3Thi-BztA-Gln-NH2]"
6,667,"CC(=O)N1CCC[C@]12CC=CCCCC1(CCCC=CCCCOC(=O)N3CC[C@@](C(=O)N[C@@H](Cc4ccccc4)C(=O)N[C@@H](Cc4csc5ccccc45)C(=O)N[C@@H](CCC(N)=O)C(N)=O)(C3)NC(=O)[C@H](CC(N)=O)NC(=O)[C@H](Cc3ccccc3)NC(=O)[C@H](C)NC(=O)[C@H](C)NC(=O)[C@H]([C@@H](C)O)NC(=O)[C@H](CC(N)=O)NC1=O)NC(=O)[C@H](CC(C)(C)C)NC(=O)[C@H](CC(=O)O)NC2=O (stereo partly drawn) [I-1735, Ac-PL3-Asp-Npg-B5-Asn-Thr-Ala-Ala-Phe-Asn-PyrS2-Phe-BztA-Gln-NH2]"
7,586,"CC(=O)N1CCC[C@]12CC=CCCCC1(CCCC=CCCCOC(=O)N3CC[C@@](C(=O)N[C@@H](Cc4ccccc4)C(=O)N[C@@H](Cc4csc5ccccc45)C(=O)N[C@@H](CCC(N)=O)C(N)=O)(C3)NC(=O)[C@H](CC(C)C)NC(=O)[C@H](Cc3ccccc3)NC(=O)[C@H](C)NC(=O)[C@H](CCCCNC(C)C)NC(=O)[C@H](CCO)NC(=O)[C@H](CC(=O)O)NC1=O)NC(=O)[C@H](CC1CCCCC1)NC(=O)[C@H](CC(N)=O)NC2=O (stereo partly drawn) [I-2344, Ac-PL3-Asn-Cha-B5-Asp-Hse-iPrLys-Ala-Phe-Leu-PyrS2-Phe-BztA-Gln-NH2]"
8,3220,"CC(=O)N1CCC[C@]12CC=CCCCC1(CCCC=CCCCOC(=O)N3CC[C@@](C(=O)N[C@@H](Cc4ccsc4)C(=O)N[C@@H](Cc4csc5ccccc45)C(=O)N[C@@H](CCC(N)=O)C(N)=O)(C3)NC(=O)[C@H](CC(N)=O)NC(=O)[C@H](Cc3ccccc3)NC(=O)[C@H](C)NC(=O)[C@H](C)NC(=O)[C@H]([C@@H](C)O)NC(=O)[C@H](CC(N)=O)NC1=O)NC(=O)[C@H](CC(C)(C)C)NC(=O)[C@H](CN(CC(=O)O)CC(F)(F)F)NC2=O (stereo partly drawn) [I-2131, Ac-PL3-TfeGA-Npg-B5-Asn-Thr-Ala-Ala-Phe-Asn-PyrS2-3Thi-BztA-Gln-NH2]"

# Further lines, the molecule ahead of its results:
row,SMILES,IC50 [nM]
1,"CC(=O)N1CCC[C@]12CCCCCCC1(CCCCCCCCOC(=O)N3CC[C@@](C(=O)N[C@@H](Cc4ccsc4)C(=O)N[C@@H](Cc4csc5ccccc45)C(=O)N[C@@H](C)C(N)=O)(C3)NC(=O)[C@H](CC(C)C)NC(=O)[C@H](Cc3ccccc3)NC(=O)[C@H](C)NC(=O)[C@H](C)NC(=O)[C@H](CN(CC(=O)O)CC(F)(F)F)NC(=O)[C@H](CC(=O)O)NC1=O)NC(=O)[C@H](CC(C)(C)C)NC(=O)[C@H](CC(=O)O)NC2=O (stereo partly drawn) [I-1720, Ac-PL3-Asp-Npg-B5-Asp-TfeGA-Ala-Ala-Phe-Leu-PyrS2-3Thi-BztA-Ala-NH2]",212
2,"CC(=O)N1CCC[C@]12CC=CCCCC1(CCCC=CCCCOC(=O)N3CC[C@@](C(=O)N[C@@H](Cc4ccsc4)C(=O)N[C@@H](Cc4csc5ccccc45)C(=O)N[C@@H](Cc4c[nH]nn4)C(N)=O)(C3)NC(=O)[C@H](CC(C)C)NC(=O)[C@H](Cc3ccccc3)NC(=O)[C@H](C)NC(=O)[C@H](C)NC(=O)[C@H](CC(=O)O)NC(=O)[C@H](CC(=O)O)NC1=O)NC(=O)[C@H](CC(C)(C)C)NC(=O)[C@H](CC(=O)O)NC2=O (stereo partly drawn) [I-1498, Ac-PL3-Asp-Npg-B5-Asp-Asp-Ala-Ala-Phe-Leu-PyrS2-3Thi-BztA-4TriA-NH2]",48
3,"CC(=O)N1CCC[C@]12CC=CCCCC1(CCCC=CCCCOC(=O)N3CC[C@@](C(=O)N[C@@H](Cc4ccsc4)C(=O)N[C@@H](Cc4csc5ccccc45)C(=O)N[C@@H](CCC(N)=O)C(N)=O)(C3)NC(=O)[C@H](CC(C)C)NC(=O)[C@H](Cc3ccccc3)NC(=O)[C@H](C)NC(=O)[C@H](CCCN3CCOCC3)NC(=O)[C@H](CC(=O)O)NC(=O)[C@H](CC(=O)O)NC1=O)NC(=O)[C@H](CC(C)(C)C)NC(=O)[C@H](CC(=O)O)NC2=O (stereo partly drawn) [I-1481, Ac-PL3-Asp-Npg-B5-Asp-Asp-MorphNva-Ala-Phe-Leu-PyrS2-3Thi-BztA-Gln-NH2]",7
4,"CC(=O)N1CCC[C@]12CC=CCCCC1(CCCC=CCCCOC(=O)N3CC[C@@](C(=O)N[C@@H](Cc4ccsc4)C(=O)N[C@@H](Cc4csc5ccccc45)C(=O)N[C@@H](CCC(N)=O)C(N)=O)(C3)NC(=O)[C@H](CC(N)=O)NC(=O)[C@H](Cc3ccccc3)NC(=O)[C@H](C)NC(=O)[C@H](C)NC(=O)[C@H](Cc3ccc(O)cc3)NC(=O)[C@H](CC(N)=O)NC1=O)NC(=O)[C@H](CC(C)(C)C)NC(=O)[C@H](CC(=O)O)NC2=O (stereo partly drawn) [I-1568, Ac-PL3-Asp-Npg-B5-Asn-Tyr-Ala-Ala-Phe-Asn-PyrS2-3Thi-BztA-Gln-NH2]",7180
5,"CC(=O)N1CCC[C@]12CC=CCCCC1(CCCC=CCCCOC(=O)N3CC[C@@](C(=O)N[C@@H](Cc4ccsc4)C(=O)N[C@@H](Cc4csc5ccccc45)C(=O)N[C@@H](CCC(N)=O)C(N)=O)(C3)NC(=O)[C@H](CC(C)C)NC(=O)C(Cc3cccc(C(=O)Oc4ccccc4)c3)NC(=O)[C@H](C)NC(=O)[C@H](C)NC(=O)[C@H](CN(CC(=O)O)CC(F)(F)F)NC(=O)[C@H](CC(=O)O)NC1=O)NC(=O)[C@H](CC(C)(C)C)NC(=O)[C@H](CC(=O)O)NC2=O (single isomer, unassigned) [I-2150, Ac-PL3-Asp-Npg-B5-Asp-TfeGA-Ala-Ala-3CO2PhF-Leu-PyrS2-3Thi-BztA-Gln-NH2]",647
6,"CC(=O)N1CCC[C@]12CC=CCCCC1(CCCC=CCCCOC(=O)N3CC[C@@](C(=O)N[C@@H](Cc4ccsc4)C(=O)N[C@@H](Cc4csc5ccccc45)C(=O)N[C@@H](CCC(N)=O)C(N)=O)(C3)NC(=O)[C@H](CC(N)=O)NC(=O)[C@H](Cc3ccccc3)NC(=O)[C@H](C)NC(=O)[C@H](C)NC(=O)[C@H](CC(=O)O)NC(=O)[C@H](CC(=O)O)NC1=O)NC(=O)[C@H](CC(C)(C)C)NC(=O)[C@H](CCC(N)=O)NC2=O (stereo partly drawn) [I-1224, Ac-PL3-Gln-Npg-B5-Asp-Asp-Ala-Ala-Phe-Asn-PyrS2-3Thi-BztA-Gln-NH2]",389
